Test results as given in patent US8394848B2, “Compounds that modulate intracellular calcium” (Calcimedica, Inc., priority 2008, dated 2013).

System: JR251 or RBL cells
Assay: Store-operated calcium entry, either JR251 or RBL cells, or both
Format: cell-based
Experimental: The day prior to performing the assay, RBL-2H3 cells are plated in 50 μL of complete medium in a 384 well plate. Cells are grown at 37° C./6% CO2 overnight and grow to 50-60% confluence by the next day. On the assay day, 1.5 μM Fluo-4-AM dye (Invitrogen) in complete medium is added and incubated for 1 hour at RT. Cells are washed twice in Ca^2+-free HBSS buffer and 35 μL Ca^2+-free HBSS buffer is added to each well. 10 μL of a test compound prepared in a Ca^2+-free HBSS solution at 4.5× of the desired concentration is added to a well and incubated for 5 minutes at RT. 10 μL of thapsigargin prepared in a Ca^2+-free HBSS solution at 5.5× of the desired concentration (5.5 uM) is added to each well and incubated for an additional 25 minutes. The initial baseline fluorescence signal is measured with a FLIPR^384 (Molecular Devices) plate reader. 5 μL of 12× calcium in HBSS (12 mM) is added and changes in cellular fluorescence are measured with the FLIPR^384 plate reader. In each well, the change in the fluorescent signal as a function of time due to calcium entry into the cell is determined by calculating the difference between the fluorescent signal measured 7 seconds after calcium addition and the initial baseline fluorescence signal at time zero (t=0). This parameter is designated Upslope. The IC50 value is calculated as the concentration at which 50% of the Upslope is inhibited.

SMILES	IC50
Cc1ccc(-c2csc(NC(=O)c3cc4c(C)nn(C)c4s3)c2C(=O)O)cc1 [2-(1,3-dimethyl-1H-thieno[2,3-c]pyrazole-5-carboxamido)-4-p-tolylthiophene-3-carboxylic acid]	< 10 µM
Cc1ccc(-c2csc(NC(=O)c3cc(C)n(C)n3)c2C(=O)O)cc1 [2-(1,5-dimethyl-1H-pyrazole-3-carboxamido)-4-p-tolylthiophene-3-carboxylic acid]	< 10 µM
O=C(Nc1scc(-c2ccc(Cl)cc2)c1C(=O)O)c1nc2ccccc2[nH]1 [2-(1H-benzo[d]imidazole-2-carboxamido)-4-(4-chlorophenyl)thiophene-3-carboxylic acid]	< 10 µM
O=C(Nc1scc(-c2ccc(Cl)cc2)c1C(=O)O)c1ccc(-c2cccs2)s1 [2-(2,2′-bithiophene-5-carboxamido)-4-(4-chlorophenyl)thiophene-3-carboxylic acid]	< 10 µM
Cc1ccc(-c2csc(NC(=O)c3ccc(-c4cccs4)s3)c2C(=O)O)cc1 [2-(2,2′-bithiophene-5-carboxamido)-4-p-tolylthiophene-3-carboxylic acid]	< 10 µM
Cc1ccc(-c2csc(NC(=O)c3cc(Cl)sc3Cl)c2C(=O)O)cc1 [2-(2,5-dichlorothiophene-3-carboxamido)-4-p-tolylthiophene-3-carboxylic acid]	< 10 µM
Cc1ccc(-c2csc(NC(=O)c3cc(C)oc3C)c2C(=O)O)cc1 [2-(2,5-dimethylfuran-3-carboxamido)-4-p-tolylthiophene-3-carboxylic acid]	< 10 µM
CC(C)C(C(=O)Nc1scc(-c2ccc(Cl)c(Cl)c2)c1C(=O)O)c1ccc(Cl)cc1 (centres unmarked) [2-(2-(4-chlorophenyl)-3-methylbutanamido)-4-(3,4-dichlorophenyl)thiophene-3-carboxylic acid]	< 10 µM
O=C(Cc1cc2ccccc2o1)Nc1scc(-c2ccc(Br)cc2)c1C(=O)O [2-(2-(benzofuran-2-yl)acetamido)-4-(4-bromophenyl)thiophene-3-carboxylic acid]	< 10 µM
O=C(Cc1coc2ccccc12)Nc1scc(-c2ccc(Br)cc2)c1C(=O)O [2-(2-(benzofuran-3-yl)acetamido)-4-(4-bromophenyl)thiophene-3-carboxylic acid]	< 10 µM
O=C(CSc1ccccc1)Nc1scc(-c2ccc(C(F)(F)F)cc2)c1C(=O)O [2-(2-(phenylthio)acetamido)-4-(4-(trifluoromethyl)phenyl)thiophene-3-carboxylic acid]	< 10 µM
CC(C)(C)C(Cc1ccccc1)C(=O)Nc1scc(-c2ccc(Cl)cc2)c1C(=O)O (centres unmarked) [2-(2-benzyl-3,3-dimethylbutanamido)-4-(4-chlorophenyl)thiophene-3-carboxylic acid]	< 10 µM
O=C(O)c1c(-c2ccc(Cl)cc2)csc1NC(=O)C(Cl)Cc1ccccc1Cl (centres unmarked) [2-(2-chloro-3-(2-chlorophenyl)propanamido)-4-(4-chlorophenyl)thiophene-3-carboxylic acid]	< 10 µM
O=C(O)c1c(-c2ccc(Cl)cc2)csc1NC(=O)C(Cl)Cc1ccccc1 (centres unmarked) [2-(2-chloro-3-phenylpropanamido)-4-(4-chlorophenyl)thiophene-3-carboxylic acid]	< 10 µM
Cc1ccc(-c2csc(NC(=O)c3cc(-c4ccccc4)oc3C)c2C(=O)O)cc1 [2-(2-methyl-5-phenylfuran-3-carboxamido)-4-p-tolylthiophene-3-carboxylic acid]	< 10 µM
O=C(O)c1c(-c2ccc(Cl)cc2)csc1NC(=O)C(F)Cc1cc(F)c(F)cc1Cl (centres unmarked) [2-(3-(2-chloro-4,5-difluorophenyl)-2-fluoropropanamido)-4-(4-chlorophenyl)thiophene-3-carboxylic acid]	< 10 µM
O=C(O)c1c(-c2ccc(Cl)cc2)csc1NC(=O)C(F)Cc1ccc(F)cc1Cl (centres unmarked) [2-(3-(2-chloro-4-fluorophenyl)-2-fluoropropanamido)-4-(4-chlorophenyl)thiophene-3-carboxylic acid]	< 10 µM
